The source of these data is ChEMBL document CHEMBL4038264, “Nabscessins A and B, Aminocyclitol Derivatives from Nocardia abscessus IFM 10029T” (J Nat Prod, 2017).

Molecules are shown by their SMILES. ≈ marks a conversion by molar mass, not a printed value. *1 amine or outer side, *2 acyl side, *3 side chain or, on linkers, in order; H or OH if unused. Where a SMILES comes first, the peptide text is derived from it. Bridges are numbered along the chain shown (N, C = ends). [ ]: non-standard residue; d: D form. The star is where a group is joined. hTyr(3S-OH,4S-OH,3'-OSO3H) = N[C@H](C(=O)O)[C@H](O)[C@@H](O)c1ccc(O)c(OS(=O)(=O)O)c1; Orn(4R-OH,5R-OH) = O=C([C@H](C[C@@H](O)[C@@H](O)N[*:3])N[*:1])[*:2]; Pro(3S-OH,4S-Me) = C[C@H]1CN[C@H](C(=O)O)[C@H]1O; X1 = CCCCCOc1ccc(-c2cc(-c3ccc(C(=O)*)cc3)no2)cc1; Gln(3R-OH) = NC(=O)C[C@@H](O)[C@H](N)C(=O)O; Hyp = O=C(O)[C@@H]1C[C@@H](O)CN1

Common to all, as to format: functional
Test [1] has as its system Trichophyton mentagrophytes. Nature of the test: Antifungal activity against Trichophyton mentagrophytes after 96 hrs by broth micro-dilution method.
In the next test the test system is Escherichia coli. Nature of the test: Antibacterial activity against Escherichia coli after 48 hrs by broth micro-dilution method. A general note: In broth dilution the organism is exposed to a series of concentrations in liquid medium.
The subject of another test is Staphylococcus aureus. Briefly: Antibacterial activity against Staphylococcus aureus after 48 hrs by broth micro-dilution method.
The next test concerns Aspergillus niger. Nature of the test: Antifungal activity against Aspergillus niger after 96 hrs by broth micro-dilution method.
A further test concerns Cryptococcus neoformans. Nature of the test: Antifungal activity against Cryptococcus neoformans after 96 hrs by broth micro-dilution method.
The subject of the next test is Candida albicans. Nature of the test: Antifungal activity against Candida albicans after 48 hrs by broth micro-dilution method.
In another test the test system is Micrococcus luteus. Nature of the test: Antibacterial activity against Micrococcus luteus after 48 hrs by broth micro-dilution method.
In the next test the test system is Bacillus subtilis. Briefly: Antibacterial activity against Bacillus subtilis after 48 hrs by broth micro-dilution method.

On to `Cc1cccc(O)c1C(=O)O[C@@H]1[C@@H](O)[C@H](O)[C@@H](NC(=O)c2cccc(O)c2)C[C@H]1OC(N)=O`, for which the IC50 – broadly, the concentration that gives 50% inhibition – was > 32 µg/mL in test [1], > 32 µg/mL in the test on Aspergillus niger, 32 µg/mL (≈ 69.5 µM) in the test on Cryptococcus neoformans and > 32 µg/mL with Candida albicans. Besides, the MIC against Escherichia coli, against Staphylococcus aureus, with Micrococcus luteus and in the test with Bacillus subtilis was > 32 µg/mL in each case.
For `CN[C@H]1C[C@@H](N)[C@H](O)[C@@H](O[C@@H]2O[C@H](CO)[C@H](O)[C@@H]3O[C@@]4(O[C@H]23)O[C@H]([C@@H](N)CO)[C@H](O)[C@H](O)[C@H]4O)[C@@H]1O`, the half-maximal inhibitory concentration (IC50) in test [1] was 1 µg/mL (≈ 1.9 µM); in the test with Aspergillus niger, 1 µg/mL (≈ 1.9 µM); with Cryptococcus neoformans it was 3.9 µg/mL (≈ 7.39 µM); in the test on Candida albicans it was 3.9 µg/mL (≈ 7.39 µM). The MIC (commonly the lowest concentration that inhibits growth of the organism) in the test on Escherichia coli was 2 µg/mL (≈ 3.79 µM); in the test on Staphylococcus aureus it was 0.5 µg/mL (≈ 0.948 µM); in the test on Micrococcus luteus, 1 µg/mL (≈ 1.9 µM); with Bacillus subtilis it was 2 µg/mL (≈ 3.79 µM).
With `Cc1cccc(O)c1C(=O)O[C@H]1[C@H](O)[C@@H](O)[C@H](OC(N)=O)C[C@@H]1NC(=O)c1cccc(O)c1`, the IC50 in test [1] was > 32 µg/mL; in the test with Aspergillus niger, > 32 µg/mL; with Cryptococcus neoformans, 16 µg/mL (≈ 34.7 µM); with Candida albicans, > 32 µg/mL. Besides, the MIC against Escherichia coli, against Staphylococcus aureus, in the test on Micrococcus luteus and with Bacillus subtilis was > 32 µg/mL throughout.
For the compound `C[C@@H]1[C@H](O)[C@@H](C)/C=C/C=C/C=C/C=C/C=C/C=C/C=C/[C@H](O[C@@H]2O[C@H](C)[C@@H](O)[C@H](N)[C@@H]2O)C[C@@H]2O[C@](O)(C[C@@H](O)C[C@@H](O)[C@H](O)CC[C@@H](O)C[C@@H](O)CC(=O)O[C@H]1C)C[C@H](O)[C@H]2C(=O)O` [AMPHOTERICIN B], the IC50 was 3.9 µg/mL (≈ 4.22 µM) in test [1], 1.8 µg/mL (≈ 1.95 µM) with Aspergillus niger, < 0.05 µg/mL in the test on Cryptococcus neoformans and 1 µg/mL (≈ 1.08 µM) in the test on Candida albicans. Also, the MIC in the test on Escherichia coli, against Staphylococcus aureus, in the test with Micrococcus luteus and in the test with Bacillus subtilis was > 31.2 µg/mL each time.
Regarding `NC[C@H]1O[C@H](O[C@H]2[C@H](O)[C@@H](O[C@H]3O[C@H](CO)[C@@H](O)[C@H](N)[C@H]3O)[C@H](N)C[C@@H]2N)[C@H](O)[C@@H](O)[C@@H]1O` [KANAMYCIN], the IC50 is 7.8 µg/mL (≈ 16.1 µM) in test [1], 31.3 µg/mL (≈ 64.6 µM) with Aspergillus niger, 7.8 µg/mL (≈ 16.1 µM) with Cryptococcus neoformans and > 62.5 µg/mL in the test with Candida albicans. The MIC in the test with Escherichia coli was < 0.1 µg/mL; in the test on Staphylococcus aureus, < 0.1 µg/mL; in the test with Micrococcus luteus, 1 µg/mL (≈ 2.06 µM); against Bacillus subtilis it was < 0.1 µg/mL.
Regarding `CCCCCOc1ccc(-c2cc(-c3ccc(C(=O)N[C@H]4C[C@@H](O)[C@@H](O)NC(=O)[C@@H]5[C@@H](O)[C@@H](C)CN5C(=O)[C@H]([C@H](O)CC(N)=O)NC(=O)[C@H]([C@H](O)[C@@H](O)c5ccc(O)c(OS(=O)(=O)O)c5)NC(=O)[C@@H]5C[C@@H](O)CN5C(=O)[C@H]([C@@H](C)O)NC4=O)cc3)no2)cc1` [MICAFUNGIN] (X1-[Orn(4R-OH,5R-OH)]T[Hyp][hTyr(3S-OH,4S-OH,3'-OSO3H)][Gln(3R-OH)][Pro(3S-OH,4S-Me)]; lactam 1-C), the IC50 (in test [1]; in the test on Aspergillus niger; in the test on Cryptococcus neoformans; in the test on Candida albicans) was < 0.1 µg/mL in each case. For the same compound, the MIC in the test on Escherichia coli is > 62.5 µg/mL; against Staphylococcus aureus, 0.5 µg/mL (≈ 0.394 µM); against Micrococcus luteus it was 7.8 µg/mL (≈ 6.14 µM); in the test with Bacillus subtilis, 0.5 µg/mL (≈ 0.394 µM).
